These results are taken from patent US12642769B2, “Delivery carrier into cell” (Kabusikikaisya ITO, priority 2019, dated 2026).

For data set [1] the following is noted: concentration in the formulation increased to 1%.
Data set [2] concerns normal human epidermal fibroblasts. In words: cell uptake of rhodamine B from carriers without stimulus-responsive polymers. Format: cell-based. The conditions noted are these: EPC set at 100%; carrier without stimulus-responsive polymers; vitamin derivative 200 μM; 37° C. 1 hour. As to the method:
Create a Delivery carrier into cell in a comparison experiment To investigate the effects of vitamin derivatives with different ATG-CTS activities on cell uptake, the following experiments were performed on delivery carrier into the cell without stimulus-responsive polymers. Six g of glycerin, 1 g of sodium cocoyl glutamate, and 1 g each of three vitamin derivatives (PA, APPS, and EPC) with different ATG-CTS activities were mixed with an electric hand mixer, and 0.1 g of rhodamine B, a fluorescent dye, was added to 20 g of jojoba oil and stirred for 20 minutes. To this, PBS was added to 100 g and stirred for 10 minutes with an electric hand mixer to prevent foaming. 3 types of cell carriers were obtained by completely dispersing them. A Delivery carrier into cell of vitamin derivative-free was also created using the same method as an additive-free control.
Normal human epidermal fibroblasts were incubated in DMEM (low glucose) containing 5% FBS at a density of 5×10^5 cell/well at 37° C. for 24 hours in 6-well plates, and then the medium containing the three delivery carrier into the cell of the invention (final concentration of PA, APPS, and EPC was added to 200 μM each) was replaced with the medium prepared as described above and incubated at 37° C. for 1 hour. Then, the cell were washed five times with PBS and immobilized with 4% paraformaldehyde phosphate buffer solution for 20 min, washed twice with PBS again, and the relative concentration of the fluorescent material taken up into the cell was determined by measuring the fluorescence intensity at the excitation wavelength of 555 (nm) and the fluorescence wavelength of 580 (nm) with a fluorescent microplate reader. cell of delivery carrier into the cell without vitamin derivatives were also cultured in the same way as additive-free controls and the fluorescence intensity was measured.

The test system is the same in data set [3]. Briefly: cell uptake of Rhodamine B from temperature-responsive liposome carriers with different vitamin derivatives. Format: cell-based. The conditions noted are these: EPC-added groups set to 100%, liposome carrier with DOPEMP (NIPAA/DMAPAA 5%) Cop, rhodamine 1 μM, 35° C. 1 hour, 40° C. 20 min. As to the method: The total amount of the next lipid was 20 mg, the molar ratio of (lipid 1,2-diore oil-3-trimethylammonium propane):(total weight of lamella-forming surfactant diore oil phosphatidylethanolamine and DOPEMP (NIPAA/DMAPAA 5%) Cop) was 3:7. Each was dissolved in chloroform. Further, the fluorescent dye Rhodamine B (1 mg) was added and dissolved. The lower limit critical dissolution temperature of DOPEMP (NIPAA/DMAPAA 5%) Cop used in this experiment in water was 40° C. The molar ratio of (dioleoylphosphatidylethanolamine: DOPEMP (NIPAA/DMAPAA) Cop.) added by total weight was 6.5:0.5.
The solution was transferred to an eggplant flask and the solvent was blown off by an evaporator to prepare a lipid film. EPC, APPS, APS and AA (ascorbic acid), which are […] of Vitamin derivatives having different ATG activity and CTS activity (hereinafter abbreviated as ATG-CTS activity), were prepared. To this lipid film, EPC, APPS, APS and AA (5 mg each) dissolved in PBS (1 ml) were added. The lipid film was hydrated and then dispersed by vortexing. After that, sonication was performed for 30 minutes in an ultrasonic bath to reduce the size of the liposome, and then the liposome was passed through a 200 nm filter using an extruder to adjust the size of the liposome. The average particle size of the examples and comparative examples was 111 nm±10 nm. Then, the liposomes were separated and purified by gel filtration. By the above method, a Delivery carrier into cell of the present invention containing an ATG-CTS activator, a temperature-responsive polymer and a hydrocarbon was prepared.
Next, normal human epidermal fibroblasts were cultured in DMEM (low glucose) containing 5% FBS for 24 hours at 37° C. at a density of 5×10^5 cell/well in 6-well plates, and then the medium containing four delivery carrier into the cell (added to achieve a final rhodamine concentration of 1 μM), including the embodiments and comparative examples prepared as described above, was exchanged for each medium and cultured at 35° C. for 1 hour. After that, it was incubated at 40° C. for 20 min, and then at 35° C. for 1 h. It was then washed five times with PBS and immobilized with 4% paraformaldehyde phosphate buffer solution for 20 min, washed twice with PBS again, and the relative concentration of the fluorescent material taken up into the cell was determined by measuring the fluorescence intensity with a fluorescent microplate reader. cell of delivery carrier into the cell without vitamin derivatives were also cultured in the same way as additive-free controls and the fluorescence intensity was measured.

Data set [4] is classed as physicochemical. The conditions noted are these: for Evaluation results: 0.02 mol/L in purified water, 50° C., one month; for Remaining rate: buffer. The method, then:
APS, APPS, and EPC so that the concentration of each ascorbate derivative is 0.02 mol/L. Dissolve them in purified water and store them at 50° C. for one month to determine their potency in a high performance liquid The starting titers of each substance were measured by chromatography, and the results after one month were used as the starting titer of 100%. If more than 95% of the result was remaining in the material, it is ∘, and if less than 95% or more than 80% of the result was less than 95%, it is […]. […] Sodium ascorbic acid-2-phosphate: APS; Sodium ascorbic acid-2-phosphate-6-palmitate 3: APPS; Potassium tocopheryl ascorbic acid-2-phosphate: EPC; ascorbic acid: AA.

Data set [5] is classed as physicochemical. The conditions noted are these: for Remaining rate: buffer; for Evaluation results: 0.5% by weight in purified water, defoaming time. As to the method: The ascorbic acid derivatives of APS, APPS, EPC, and AA were dissolved in purified water at a concentration of 0.5% by weight, and the time to defoam the bubbles was measured with a sponge under the same conditions. The results are shown in Table 14, where the defoaming time of the APPS with the longest defoaming time was set to 100% and the defoaming time of each was calculated as a percentage, with 90% or more being considered O (best), 80% or more to 90% or less being considered B (good), and 80% or less being considered X (poor). Description of abbreviations: ascorbic acid-2-phosphateNa:APS, ascorbic acid-2-phosphate-6-palmitate3Na:APPS, ascorbic acid-2-tocopheryl potassium:EPC, ascorbic acid:AA.

A short description of data set [6]: lower critical dissolution temperature in water. Format: physicochemical. The method, then:
The lower critical dissolution temperature of the temperature-stimuli-responsive polymer-containing molecules in the present invention in water should be between a temperature close to body temperature and 70° C., which is the maximum temperature for carrier transportation in summer during product distribution (e.g., 35.0 to 70.0° C.). On the other hand, for the temperature-responsive polymer of the present invention, even if the lower critical dissolution temperature is near body temperature, it is easier to suppress cell death after delivery into cells if the temperature is as high as possible. […] In the present invention, the lower critical dissolution temperature of the temperature-responsive polymer in water is measured by differential scanning calorimetry (DSC).
For this reason, the lower critical dissolution temperature of the conventional temperature-stimulus-responsive-polymer containing molecules is preferred to be 37-42° C., which is close to the body temperature. […] In the present invention, the lower critical dissolution temperature of the temperature-stimulus-responsive polymer in water is measured by differential scanning calorimetry (DSC).

Data set [7] relates to HMV-II cell. Briefly: Melanin production inhibition test. The format is cell-based. The conditions noted are these: 200 μM, no carrier. As to the method:
Pre-treatment: The following melanin production inhibition tests were performed using A-2, B-2, C-2, and D-2 pH-responsive delivery carrier into the cell (A-3, B-3, C-3, and D-3): HMV-II cell were seeded in 24 well dishes at a concentration of 1×10^5 cell/mL, incubated for 24 hours, and then added 200 μM of IBMX and A-3, B-3, C-3, and D-3 pH-responsive delivery carrier into the cell (A-3, B-3, C-3, and D-3) at an APS concentration of 100 μM. 2 hours later, the cell were washed with PBS, 200 μM of IBMX was added again, and incubated for 70 hours. The cell were then solubilized with 200 μL of NaOH at 1 mol/L, and melanin was extracted and quantified by measuring the absorbance at 405 nm. The melanin production was increased about 3-fold by the addition of IBMX (no carrier for pH-responsive cell delivery). When the amount of melanin produced at this time was assumed to be 100%, the amount of melanin produced by A-3 addition of the invention was 48%, B-3 was 78%, C-3 was 85%, and D-3 was 90%.

The test system of data set [8] is HMV-II cell. Briefly: Cellular damage assessment (Cell Counting Kit-8). The format is cell-based. The conditions noted are these: Cell Counting Kit-8, absorbance at 450 nm. The method, then:
HMV-II cell were seeded at a concentration of 1×10^5 cell/mL in 500 μL/well on a 6-well plate. After incubation for 24 hours, 200 μM of IBM X, a melanin-producing stimulant, was added. APS was added to 100 μM for each pH-responsive delivery carrier into cell of A-3, B-3, C-3, and D-3. 2 hours later, the cell were washed with PBS, 200 μM of IVMX was added again, and incubated for 70 hours. To this, 10 μL of Cell Counting Kit-8 was added, and the cytotoxicity of sample addition was compared by measuring absorbance at 450 nm after 1 h of incubation.
Background: Tetrazolium assays rely on reduction of a dye to a coloured formazan, in cell work by metabolically active cells.

Like-named read-outs stand apart in the source and are kept apart here.

For the compound `CCCCCCCC(=O)OC1=C(OCC(O)CO)C(=O)OC1C(O)CO` (stereo not drawn) [GOVC, 2-glyceryl-3-Caprylyl ascorbate], the skin irritation entry in data set [1] is “no skin irritation was observed”.
On to `CCCCCCCCCCCCCCCC(=O)OC[C@H](O)[C@H]1OC(=O)C(O)=C1O` [PA, ascorbyl palmitate], for which the “fluorescence intensity (fluorescent material taken up into the cell)” value (“fluorescence intensity” for short) in data set [2] amounted to 58%.
As for `O=C1O[C@H]([C@@H](O)CO)C(O)=C1OP(=O)([O-])[O-].[Na+].[Na+]` [APS, Sodium ascorbic acid-2-phosphate], the “fluorescence intensity” value in data set [3] is 49%. In data set [4], the Evaluation results is given as “Δ”. Moreover, the Remaining rate in data set [4] (1 month, 0.02 mol/L) came to 91%; in data set [5], 3%.
Turning to `CCCCCCCC(=O)OC1=C(OCC(O)CO)C(C(O)CO)OC1=O` (stereo not drawn) [OGVC, 3-glyceryl-2-Caprylyl ascorbate], the skin irritation result in data set [1] is “no skin irritation was observed”.
Regarding `O=C1O[C@H]([C@@H](O)CO)C(O)=C1O` [AA, ascorbic acid, reference compound], the “fluorescence intensity” value in data set [3] was 52%. For the same compound, the Remaining rate in data set [4] (1 month, 0.02 mol/L) turned out to be 56%; in data set [5], 1%.
As to `Cc1c(C)c2c(c(C)c1OP(=O)([O-])OC1=C(O)[C@@H]([C@@H](O)CO)OC1=O)CC[C@@](C)(CCC[C@H](C)CCC[C@H](C)CCCC(C)C)O2.[K+]` [EPC, Potassium tocopheryl ascorbic acid-2-phosphate], the “fluorescence intensity” value in data set [3] and in data set [2] was 100% each time. For the same compound, the Evaluation results is “○” in data set [4] and “Δ” in data set [5]. Besides, the values for the Remaining rate in data set [4] and in data set [5] were 96% and 85%, respectively.
With “Dioleoylephosphatidylethanolamine mercaptopropionyl (isopropylacrylamide/dimethylaminopropylacrylamide 5%) copolymer [DOPEMP (NIPAA/DMAPAA 5%) Cop]”, the “lower critical dissolution temperature in water” value in data set [6] worked out at 40 °C.
Consider `CCCCCCCCCCCCCCCC(=O)OC[C@H](O)C1OC(=O)C(OP(=O)([O-])[O-])=C1[O-].[Na+].[Na+].[Na+]` (stereo partly drawn) [APPS, Sodium ascorbic acid-2-phosphate-6-palmitate 3], for which the results for the “fluorescence intensity” value in data set [3] and in data set [2] were 78% and 76%, respectively. Moreover, the Remaining rate is given as 78% in data set [4] and 100% in data set [5]. Also, the Evaluation results in data set [5] is “○”.
Turning to `CC(C)Cn1c(=O)n(C)c(=O)c2[nH]cnc21` [IBMX], the “increase of melanin production” value with HMV-II cell [7] was “about 3 fold”. Moreover, in the data set on HMV-II cell [8], the cytotoxicity entry was “cytotoxicity was confirmed”.
